Experimental data reported in patent US9120861B2, “Functional enhancement of antimicrobials” (Mississippi State University, priority 2008, dated 2015).
“Also recorded” adds a separate entry of the source.

What was measured:
[1] = thin layer chromatography (TLC) lipid II binding assay; details: iodine stain; FIG. 8 and FIG. 9
Excerpt: In FIG. 8 and FIG. 9, a thin layer chromatography (TLC) lipid II binding assay for native and modified nisin A and gallidermin is shown, respectively. The method of the present invention enables direct visualization for the loss of lipid II binding. […] Nisin is not as stable as gallidermin at higher temperatures.

[2] = tested on: M. luteus; assay: bioassay plate overlaid with M. luteus (bacterial clearing); type: cell-based; details: 5 μL spotted onto a plate overlaid with M. luteus; FIG. 6
Protocol: We performed a 2-mercaptoethanol addition to mutacin 1140 at pH 7.3 in Tris buffer at room temperature for 2 hours. FIG. 5 is a RP-HPLC chromatogram of the native mutacin 1140, designated by the black line with triangles, overlaid on the chromatogram of the 2-mercaptoethanol modified mutacin 1140 (B-Me mutacin), which is designated by the grey line with circles. The modification changes the retention time of the native molecule to the left, a slightly more hydrophilic solvent (more water relative to acetonitrile). The large peak in the flow through was determined, by smell, to be 2-mercaptoethanol. The two small sharp peaks following the flow peak, which both have an absorbance in the 280 nm range, appears to be contaminants in the 2-mercaptoethanol solution. They also appeared in Nisin A modified by the same 2-mercaptoethanol labeling procedure. Nisin has no aromatic residues to account for this absorbance. […] In the future, these 2-mercatoethanol peaks will be removed by washing the sample with ice cold ether, which will extract the thiol compound leaving our peptide in solution. We spotted 5 μL of the native mutacin and the B-Me mutacin onto a plate overlaid with M. luteus. […] We also performed the same reaction with ethanethiol following the same procedure outline above. […]

Substance | lipid II binding (retention of lipid II at the origin of the TLC plate) [1] | bactericidal activity (bacterial clearing, inhibition of bacterial growth) [2]
ethanethiol labeled nisin: nisin following addition of the organosulfur compound ethanethiol | maintains lipid II binding activity; also recorded: diminished capacity to retain lipid II at the origin | 
gallidermin | retain lipid II at the origin | 
mutacin 1140 |  | bacterial clearing
nisin A | retain lipid II at the origin | 
